{"source": "paper PMC8268575", "about": "(International Journal of Molecular Sciences, 2021)", "key": {"[1]": {"settings": "plasma; cited from earlier work", "from_the_text": "Although (pyr)-apelin-13 has increased stability and a longer plasma half-life in comparison with the non-pyroglutamated isoforms, it still has a short half-life of only minutes. Angiotensin-converting enzyme 2 (ACE2, EC 3.4.17.23) was always considered to be the only enzyme responsible for the hydrolysis of the C-terminal Phe of (pyr)-apelin-13 [28, 29, 30], until we identified PRCP as an apelin-cleaving enzyme in 2016, during the search for new PRCP-substrates based on amino acid sequence. Although many efforts were made to elucidate the importance of this C-terminal P ..."}, "HAoEC": {"tested_on": "HAoEC", "assay": "Substrate cleavage in HAoEC, supernatant analysed by MALDI-TOF/TOF", "assay_type": "in vitro ADME, human", "procedure": "(§1) The experiment was independently conducted 4 times. […] The supernatants were desalted and concentrated by use of C18 ZipTips (Merck-Millipore, Burlington, MA, USA) and eluted directly on the MALDI target in 70% acetonitrile/0.1% TFA. Subsequently, a MALDI matrix solution of 2.5 mg/mL α-cyano-4-hydroxycinnamic acid in 70% acetonitrile/0.1% TFA was applied on each spot, air-dried at room temperature, and the target was introduced into a 4800 plus MALDI TOF/TOF^TM Analyzer. Mass spectrometry (MS) spectra (mass range: 600–4000 Da) were acquired in positive reflector mode with a laser intensity of 5000. To confirm the identity of the most important peptides, MS/MS spectra were generated by use of collision induced dissociation with a laser intensity of 5500. Calibration was done during analysis using the 6-peptide mixture (AB Sciex, Framingham, MA, USA). Mass spectra were generated by use of the 4000 Series Explorer and analyzed by mMas. […] The ratio of the peak intensity of the cleaved substrate to the peak intensity of the intact substrate is an indication for the C-terminal cleavage of the substrates. To check for additional cleavage sites, a search for other product peaks was completed. Statistical analysis was performed using SPSS software version 27 (IBM). Two-way ANOVA analysis was conducted to examine the effect of the two independent variables (treatment duration and treatment option) on the ratio of the peak intensities."}, "recombinant human PREP": {"biological_target": "T1, recombinant human PREP (Homo sapiens, UniProt P48147)", "T1 sequence (P48147 1-710)": "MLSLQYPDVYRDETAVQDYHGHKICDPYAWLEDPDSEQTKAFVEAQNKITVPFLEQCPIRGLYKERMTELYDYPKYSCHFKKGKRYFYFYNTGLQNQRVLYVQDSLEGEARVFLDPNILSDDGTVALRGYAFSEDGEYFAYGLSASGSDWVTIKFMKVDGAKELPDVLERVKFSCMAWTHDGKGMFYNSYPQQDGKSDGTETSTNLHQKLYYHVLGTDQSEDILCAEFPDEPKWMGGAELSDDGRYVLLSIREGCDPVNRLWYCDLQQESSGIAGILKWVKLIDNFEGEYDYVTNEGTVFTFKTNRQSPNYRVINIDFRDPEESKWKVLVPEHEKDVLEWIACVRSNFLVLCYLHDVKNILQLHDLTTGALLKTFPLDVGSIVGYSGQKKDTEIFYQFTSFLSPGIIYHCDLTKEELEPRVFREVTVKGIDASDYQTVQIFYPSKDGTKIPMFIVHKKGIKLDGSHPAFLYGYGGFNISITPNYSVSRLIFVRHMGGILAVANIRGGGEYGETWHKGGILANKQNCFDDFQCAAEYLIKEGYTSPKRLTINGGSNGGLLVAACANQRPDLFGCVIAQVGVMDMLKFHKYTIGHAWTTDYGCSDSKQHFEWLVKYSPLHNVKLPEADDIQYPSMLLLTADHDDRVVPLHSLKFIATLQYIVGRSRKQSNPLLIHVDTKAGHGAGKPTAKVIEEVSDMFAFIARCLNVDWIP", "assay": "Cleavage by recombinant PREP, MALDI-TOF/TOF", "settings": "pH 7.4 (0.1 M potassium phosphate, 1 mM EDTA, 5 mM DTT), 100 µM substrate, 0 s to 1 h", "procedure": "Supplementary Material File S3. Cleavage by recombinant PREP\nRecombinant human PREP, expressed in BL21 (DE3) cells as previously described, was […]\n(Laboratory for Medicinal Chemistry, University of Antwerp) or vehicle control at pH 7.4 (0.1 M potassium phosphate, 1 mM EDTA and 5 mM DTT). 100 μM substrate ((pyr)-apelin-13, (pyr)-apelin-13(1-12), Ang II or α-MSH 1-13) or vehicle control (PBS) was added. The reaction was stopped by acidification (pH<3) with 0.1% TFA after different time periods (0 s, 30 s, 1 min, 5 min, 15 min, 30 min or 1 h) and samples were stored at -80 °C.\nA search for product peaks of the different peptides was conducted.\n1. Van Elzen, R.; Schoenmakers, E.; Brandt, I.; Van Der Veken, P.; Lambeir, A.M.\nLigand-induced conformational changes in prolyl oligopeptidase: A kinetic approach."}, "[2]": {"biological_target": "T2, secreted PRCP in HUVEC supernatant (Homo sapiens, UniProt P42785)", "T2 construct": "endogenous in cells; host or cells: HUVEC and HAoEC (cell lysate and culture supernatant)", "T2 sequence (P42785 46-496)": "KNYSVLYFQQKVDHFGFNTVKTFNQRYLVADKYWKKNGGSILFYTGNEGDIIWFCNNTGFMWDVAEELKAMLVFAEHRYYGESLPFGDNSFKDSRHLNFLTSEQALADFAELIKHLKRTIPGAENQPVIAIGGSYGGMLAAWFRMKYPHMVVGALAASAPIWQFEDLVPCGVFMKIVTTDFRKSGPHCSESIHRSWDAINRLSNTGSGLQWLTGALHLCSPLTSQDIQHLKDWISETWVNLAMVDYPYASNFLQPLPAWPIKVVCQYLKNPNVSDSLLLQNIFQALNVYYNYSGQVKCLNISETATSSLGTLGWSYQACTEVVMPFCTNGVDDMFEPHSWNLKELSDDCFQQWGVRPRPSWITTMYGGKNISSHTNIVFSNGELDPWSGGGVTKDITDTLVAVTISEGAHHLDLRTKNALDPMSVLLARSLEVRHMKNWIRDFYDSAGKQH", "assay": "Incubation of (pyr)-apelin-13 with 24 h cellular supernatant of HUVEC", "assay_type": "in vitro ADME", "settings": "100 µM substrate", "procedure": "Supplementary Material File S4. Incubation of (pyr)-apelin-13 with cellular supernatant HUVEC were seeded at a density of 10 000 cells per well in 96-well plates in 100 µL full medium. After 24 h, medium was replaced by assay medium and the cells were incubated for another 24 h at 37 °C in 5% CO2. After 24 h, cell supernatants were harvested and incubated with vehicle control (1% DMSO) or 1 µM compound 8o for 15 min at 37 °C. Then, 100 μM (pyr)-apelin-13 or vehicle control (PBS) was added. The reaction was stopped by acidification (pH<3) with 0.1% TFA after 1 h and the samples were stored at -80 °C until further processing.\nThe experiment was independently conducted 4 times. To detect the cleavage of (pyr)-apelin-13 (m/z 1533.8), the samples were analysed by MALDI-TOF/TOF.\nHowever, comparing this experiment with the initial experiment where (pyr)-apelin-13 was added to the cells for 24 h (Figure 1 of main manuscript), much less (pyr)-apelin-13 was […]\nterminal (pyr)-apelin-13 cleavage seen in the initial experiment.\nFigure S4.1: Incubation of 24 h cellular supernatant with (pyr)-apelin-13 during 1 h. (Pyr)- […]\n(1 picture or pasted object on this page, not shown here)"}, "HUVEC": {"tested_on": "HUVEC", "assay": "Substrate cleavage in HUVEC, supernatant analysed by MALDI-TOF/TOF", "assay_type": "in vitro ADME, human", "settings": "100 µM substrate", "procedure": "as §1"}}, "note": "Entries after “also recorded” stand apart in the source; their conditions may differ."}
{"smiles": "CSCC[C@H](NC(=O)[C@@H]1CCCN1C(=O)CNC(=O)[C@H](CCCCN)NC(=O)[C@H](Cc1cnc[nH]1)NC(=O)[C@H](CO)NC(=O)[C@H](CC(C)C)NC(=O)[C@H](CCCNC(=N)N)NC(=O)[C@@H]1CCCN1C(=O)[C@H](CCCNC(=N)N)NC(=O)[C@@H]1CCC(=O)N1)C(=O)N1CCC[C@H]1C(=O)N[C@@H](Cc1ccccc1)C(=O)O", "note": "[(pyr)-apelin-13]", "values": [{"measurement": "half-life", "setting": "[1]", "value": "only minutes"}, {"measurement": "C-terminal cleavage of (pyr)-apelin-13 to (pyr)-apelin-13(1–12), ratio of peak intensities in the supernatant", "setting": "HAoEC; HAoEC 10,000 cells/well, 100 µM substrate, assay medium (5% full medium in HBSS), 37 °C, 0/2/4/8/24 h, all treatment groups, MALDI-TOF/TOF, n = 4", "value": "significant after 24 h"}, {"measurement": "Enzyme dependence of cleavage of (pyr)-apelin-13 to (pyr)-apelin-13(1–12)", "setting": "HAoEC; HAoEC pre-treated 15 min with 1 µM compound 8o (PRCP) and/or 1 µM DX600 (ACE2), 100 µM substrate, 24 h, n = 4", "value": "PRCP- and ACE2-dependent"}, {"measurement": "Involvement of PRCP and ACE2 in cleavage of (pyr)-apelin-13 to (pyr)-apelin-13(1-6)", "setting": "HAoEC; HAoEC, 1 µM compound 8o and/or 1 µM DX600, data not shown", "value": "none of the studied enzymes were involved"}, {"measurement": "Cleavage of (pyr)-apelin-13 to (pyr)-apelin-13(1-6)", "setting": "HAoEC; HAoEC, all treatment groups, 100 µM substrate, MALDI-TOF/TOF, data not shown", "value": "significant from 8 h onwards"}, {"measurement": "C-terminal cleavage of (pyr)-apelin-13 to (pyr)-apelin-13(1–12), earliest observable time", "setting": "HAoEC; control, PRCP-inhibited and ACE2-inhibited HAoEC, 100 µM substrate, 37 °C, MALDI-TOF/TOF, n = 4", "value": "already observable after 8 h"}, {"measurement": "Cleavage by recombinant human PREP", "setting": "recombinant human PREP", "value": "did not cleave; also recorded: could not observe"}, {"measurement": "C-terminal cleavage of (pyr)-apelin-13 in cell-free 24 h HUVEC supernatant", "setting": "[2]; 1 h, 37 °C, MALDI-TOF/TOF, 4 independent experiments", "value": "cleaved at its C-terminus after 1 h"}, {"measurement": "Extent of PRCP-mediated cleavage in cell-free HUVEC supernatant compared with the cellular experiment", "setting": "[2]; 1 h versus 24 h with cells", "value": "to a much lesser extent"}, {"measurement": "C-terminal cleavage of (pyr)-apelin-13 to (pyr)-apelin-13(1–12), ratio of peak intensities in the supernatant", "setting": "HUVEC; HUVEC 10,000 cells/well, assay medium (5% full medium in HBSS), 37 °C, 0/2/4/8/24 h, all treatment groups, MALDI-TOF/TOF, n = 4", "value": "significant after 24 h"}, {"measurement": "Enzyme dependence of cleavage of (pyr)-apelin-13 to (pyr)-apelin-13(1–12)", "setting": "HUVEC; HUVEC pre-treated 15 min with 1 µM compound 8o (PRCP) and/or 1 µM DX600 (ACE2), 24 h, n = 4", "value": "PRCP-dependent"}, {"measurement": "Cleavage of (pyr)-apelin-13 to (pyr)-apelin-13(1-6)", "setting": "HUVEC; HUVEC, MALDI-TOF/TOF", "value": "could not be detected"}]}
